Test results reported in US20230348561A1, “DOMINANT NEGATIVE TGFBETA RECEPTOR POLYPEPTIDES, CD8 POLYPEPTIDES, CELLS, COMPOSITIONS, AND METHODS OF USING THEREOF” (IMMATICS US, INC., priority 2022, published 2023).

B1: dnTGFβRIIvar2: dominant negative TGFβRII variant 2, SEQ ID NO: 307, encoded by SEQ ID NO: 308; lentiviral vector SEQ ID NO: 313 (protein)
chain: MGRGLLRGLWPLHIVLWTRIASTIPPHVQKSVNNDMIVTDNNGAVKFPQLCKFCDVRFSTCDNQKSCMSNCSITSICEKPQEVCVAVWRKNDENITLETVCHDPKLPYHDFILEDAASPKCIMKEKKKPGETFFMCSCSSDECNDNIIFSEEYNTSNPDLLLVIFQVTGISLLPPLGVAISVIIIFYCYRVNRQQKLSS
modifications: Dominant Negative TGFbetaRII var2 Amino Acid Sequence
B2: dnTGFβRIIvar1: dominant negative TGFβRII variant 1, SEQ ID NO: 305, encoded by SEQ ID NO: 306; lentiviral vector SEQ ID NO: 312 (protein)
chain: MGRGLLRGLWPLHIVLWTRIASTIPPHVQKSDVEMEAQKDEIICPSCNRTAHPLRHINNDMIVTDNNGAVKFPQLCKFCDVRFSTCDNQKSCMSNCSITSICEKPQEVCVAVWRKNDENITLETVCHDPKLPYHDFILEDAASPKCIMKEKKKPGETFFMCSCSSDECNDNIIFSEEYNTSNPDLLLVIFQVTGISLLPPLGVAISVIIIFYCYRVNRQQKLSS
modifications: Dominant Negative TGFbetaRII var1 Amino Acid Sequence

Assays:
UACC257-RFP tumor cells = assay: Tumor death assays with TGF-β1/galunisertib and serial tumor challenges (IncuCyte); assay type: cell-based; settings: TCR-only effector cells, E:T 5:1; TGF-β1 8 or 128 ng/mL; GAL 5 μM
Experimental: Cells prepared as in Example 17 were thawed, washed, and resuspended in TexMACS medium supplemented with 5% by volume human AB serum (“Complete TexMACS”). Benzonase nuclease was added to a concentration of 50 U/mL and the cells were incubated (rested) overnight in tissue culture-treated flasks at 37° C.
UACC257 tumor cells were harvested using 0.05% trypsin, washed, and counted. Red fluorescent protein (RFP)-labeled tumor cells (“UACC257-RFP”) were plated at 5,000 to 10,000 per well in a flat-bottomed 96-well plate in 100 μL of Complete TexMACS. Plates were placed in an incubator at 37° C. UACC257 cells express high levels of the antigen PRAME (preferentially expressed antigen in melanoma).
Transduced cells (effector) and tumor cells (target) were co-cultured in 96 well tissue culture plates. Effector/target co-culture plates were placed into an IncuCyte ZOOM imager at 37° C. and 5% CO2 and imaged every 2 hours for the duration of 3 to 12 days. Data was exported from the IncuCyte ZOOM software into Microsoft Excel and GraphPad Prism for further analysis. Fold tumor growth (RFP+ cell count) was normalized to 0 hr timepoint.
TCR-only transduced cells from one donor (prepared as in Example 17) were co-cultured with UACC257 tumor cells, as described in Example 20, at an effector:target (E:T) ratio of 5:1. […]

effector T cells = assay: CellTrace proliferation assay of effector T cells co-cultured with UACC257; assay type: cell-based, human; settings: TCR-only effector cells, E:T 5:1; TGF-β1 2-128 ng/mL; GAL 5 μM; 3 days
Experimental: Transduced cells from one donor (prepared as in Example 17) were thawed, washed, and resuspended in TexMACS medium supplemented with 5% by volume human AB serum (“Complete TexMACS”). Benzonase nuclease was added to a concentration of 50 U/mL and the cells were incubated (rested) overnight in tissue culture-treated flasks at 37° C.
UACC257 tumor cells were harvested using 0.05% trypsin, washed, and counted. Red fluorescent protein (RFP)-labeled tumor cells were plated at 5,000 tumor cells per well in 100 μL in triplicate in a 96-well plate in Complete TexMACS. Plates were placed in an incubator at 37° C.
On the day of co-culture, effector T cells were counted, washed, and resuspended in PBS containing a CellTrace Violet proliferation dye at 1:1000 dilution (1 μL dye per mL PBS) and incubated for 20 minutes at 37° C. […]
Labeled effector T cells were then washed, counted, and resuspended in Complete TexMACS and added in 1 mL per well to previously prepared tumor targets for a total of 2 mL per well at an effector:target (E:T) ratio of 5:1. […]
UACC257 tumor cells were harvested using 0.05% trypsin, washed, and counted. […]
On the day of co-culture, cells from two donors prepared and sorted as in Example 19 were counted, washed, and resuspended in PBS containing a CellTrace Violet proliferation dye at 1:1000 dilution (1 μL dye per mL PBS) and incubated for 20 minutes at 37° C. […]

pSMAD2/3 = assay: Phospho-SMAD intracellular staining assay; assay type: cell-based, human; settings: 5 ng/mL TGFβ; vs non-transduced cells
Experimental: SMAD is a signal transducer in the TGFβ signaling pathway. SMAD is phosphorylated in response to binding of TGFβ to its receptor and facilitates expression of TGFβ-responsive genes.
Non-transduced cells and cells expressing dnTGFβvar1 or dnTGFβvar2 (prepared as in Example 17) were thawed and washed in TexMACS medium supplemented with 5% by volume human AB serum (“Complete TexMACS”). They were subsequently resuspended in unsupplemented TexMACS to rest under serum starvation overnight at 37° C. After overnight rest, effector cells were counted and the concentration was adjusted as necessary and 100 μL aliquots were added into a flat-bottomed 96-well tissue culture plate. To avoid stimulating SMAD phosphorylation from the manipulation of cells during counting/plating, cells were further rested about 2 hours in serum-free TexMACS at 37° C.
After 2 hours, 50 μL of a 3× solution of TGF-β1 (15 ng/mL) and/or GAL (15 μM) was added to the plated effector cells for final 1× concentrations of 5 ng/mL TGF-β1 and/or 5 μM GAL, respectively. For untreated cells, 50 μL of untreated medium was added. […]
Following permeabilization, cells were washed twice with Flow Buffer (PBS, 1% FBS, 0.1% sodium azide). […] Cytometry data files were analyzed in FlowJo. pSMAD+ percentages were reported as a proportion of all live lymphocytes. […]

Molecule	tumor fold growth of UACC257-RFP cells (UACC257-RFP tumor cells)	Division Index / proliferation of effector T cells (effector T cells)	percentage of all lymphocytes positive for pSMAD (pSMAD2/3)
Cc1cccc(-c2nn3c(c2-c2ccnc4ccc(C(N)=O)cc24)CCC3)n1 [GAL, Galunisertib]	rescues or enhances ability of effector cells to kill tumor cells	rescued	–
TGF-β1: exogenous cytokine added to co-cultures	reduced the anti-tumor cytotoxicity of the effector cells	suppresses proliferation of effector T cells	–
B1	–	–	reduced phosphorylated SMAD
B2	–	–	reduced phosphorylated SMAD
